Source: patent US9206219B2, “17-hydroxy-17-pentafluorethyl-estra-4,9(10)-dien-11-aryl derivatives, methods for the production thereof and the use thereof for treating diseases” (Bayer Intellectual Property GmbH, priority 2009, dated 2015)

Key:
[1] = target: T1, human progesterone receptor B (Homo sapiens, UniProt P06401); assay: Progesterone receptor-antagonistic action in stably transfected SK-N-MC cells, MMTV-LUC reporter (PR-B); assay type: cell-based; details: antagonistic potency vs 0.1 nmol/l promegestone, 24 hours
T1 construct: expressed in transfected cells; host or cells: SK-N-MC human neuroblastoma cells, stably transfected with pRChPR-B-neo and pMMTV-LUC
T1 sequence (P06401 1-933): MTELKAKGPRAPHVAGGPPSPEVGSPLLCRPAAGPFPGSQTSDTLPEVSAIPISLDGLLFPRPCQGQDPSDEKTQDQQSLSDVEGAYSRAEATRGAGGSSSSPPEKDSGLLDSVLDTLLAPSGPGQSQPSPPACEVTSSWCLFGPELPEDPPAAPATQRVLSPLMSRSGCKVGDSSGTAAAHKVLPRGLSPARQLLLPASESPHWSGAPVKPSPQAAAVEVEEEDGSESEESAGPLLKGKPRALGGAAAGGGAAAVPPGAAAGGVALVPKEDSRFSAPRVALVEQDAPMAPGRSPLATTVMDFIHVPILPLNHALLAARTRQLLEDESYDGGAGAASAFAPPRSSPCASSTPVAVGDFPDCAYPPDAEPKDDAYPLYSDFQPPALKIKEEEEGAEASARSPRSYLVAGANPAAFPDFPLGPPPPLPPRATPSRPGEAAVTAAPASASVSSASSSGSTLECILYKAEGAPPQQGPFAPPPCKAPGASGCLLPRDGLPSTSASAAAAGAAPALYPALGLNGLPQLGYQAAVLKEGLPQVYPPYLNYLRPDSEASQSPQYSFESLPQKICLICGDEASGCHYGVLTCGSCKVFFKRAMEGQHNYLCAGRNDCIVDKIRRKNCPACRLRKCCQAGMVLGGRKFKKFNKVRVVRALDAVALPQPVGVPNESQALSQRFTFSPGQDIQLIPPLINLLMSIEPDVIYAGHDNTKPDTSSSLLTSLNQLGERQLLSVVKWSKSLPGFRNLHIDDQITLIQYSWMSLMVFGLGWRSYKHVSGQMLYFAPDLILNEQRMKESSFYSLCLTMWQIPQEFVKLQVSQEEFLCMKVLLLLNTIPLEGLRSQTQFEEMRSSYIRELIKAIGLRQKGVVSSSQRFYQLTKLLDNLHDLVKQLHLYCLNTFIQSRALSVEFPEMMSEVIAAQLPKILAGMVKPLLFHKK
Description: (§1) Progesterone Receptor-Antagonistic Action in Stable Transfectants of Human Neuroblastoma Cells (SK-N-MC Cells) with the Human Progesterone A or Progesterone B Receptor and an MN-LUC Reporter Construct
(§2) SK-N-MC cells (human neuroblastoma cells) which have been stably transfected with plasmids expressing the human progesterone receptor B (pRChPR-B-neo) or the human progesterone receptor A (pRChPR-A-neo) and a reporter construct (pMMTV-LUC) were incubated for 24 hours either in the absence (negative control) or in the presence of ascending amounts of the particular test compound (0.01 nmol/l, 0.1 nmol/l, 1 nmol/l, 10 nmol/l, 100 nmol/l and […]), in order to determine the agonistic efficacy. As a positive control of the reporter gene induction, the cells were treated with the synthetic gestagen promegestone (0.01 nmol/l, 0.1 nmol/l, 1 nmol/l, 10 nmol/l, 100 nmol/l and […]). To determine the antagonistic activity, the cells were treated with 0.1 nmol/l promegestone and additionally with ascending amounts of the particular test compound (0.01 nmol/l, 0.1 nmol/l, 1 nmol/l, 10 nmol/l, 100 nmol/l and […]). The activity of the reporter gene LUC (LUC=luciferase) was determined in the cell lysates and measured as RLU (relative light units). All measurements are reported as % efficacy and as EC50 and IC50 concentrations.

[2] = target: T2, human progesterone receptor A (Homo sapiens, UniProt P06401); assay: Progesterone receptor-antagonistic action in stably transfected SK-N-MC cells, MMTV-LUC reporter (PR-A); assay type: cell-based; details: antagonistic potency vs 0.1 nmol/l promegestone, 24 hours
T2 construct: expressed in transfected cells; host or cells: SK-N-MC human neuroblastoma cells, stably transfected with pRChPR-A-neo and pMMTV-LUC
T2 sequence (P06401 1-769 isoform P06401-2): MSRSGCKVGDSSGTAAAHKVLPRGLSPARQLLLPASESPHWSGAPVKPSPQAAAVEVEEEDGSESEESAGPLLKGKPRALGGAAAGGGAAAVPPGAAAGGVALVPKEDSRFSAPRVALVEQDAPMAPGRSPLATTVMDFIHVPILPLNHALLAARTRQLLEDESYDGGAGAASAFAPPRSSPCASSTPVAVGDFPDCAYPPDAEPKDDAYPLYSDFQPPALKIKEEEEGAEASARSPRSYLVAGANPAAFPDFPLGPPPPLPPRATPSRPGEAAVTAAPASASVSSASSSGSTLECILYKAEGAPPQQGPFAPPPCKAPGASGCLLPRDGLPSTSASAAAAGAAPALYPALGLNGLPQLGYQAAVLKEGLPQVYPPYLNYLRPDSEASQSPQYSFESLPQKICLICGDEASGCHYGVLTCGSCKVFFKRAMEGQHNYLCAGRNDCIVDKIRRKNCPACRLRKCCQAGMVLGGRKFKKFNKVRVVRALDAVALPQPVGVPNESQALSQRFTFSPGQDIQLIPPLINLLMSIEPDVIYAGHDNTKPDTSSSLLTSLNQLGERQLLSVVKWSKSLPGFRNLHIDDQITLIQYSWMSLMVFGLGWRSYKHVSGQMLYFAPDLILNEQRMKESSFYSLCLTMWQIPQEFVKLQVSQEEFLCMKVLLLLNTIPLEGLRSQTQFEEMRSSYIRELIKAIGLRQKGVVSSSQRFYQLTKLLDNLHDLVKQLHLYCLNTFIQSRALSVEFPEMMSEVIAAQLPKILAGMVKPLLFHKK
Description: as §1, §2

SMILES | IC50 [1] [nM] | IC50 [2] [nM]
CCOC(=O)c1ccc(NC(=O)NCc2ccc([C@H]3C[C@@]4(C)[C@@H](CC[C@@]4(O)C(F)(F)C(F)(F)F)[C@@H]4CCC5=CC(=O)CCC5=C43)cc2)cc1 [Example 36, 4-{3-[4-((8S,11R,13S,14S,17S)-17-hydroxy-13-methyl-3-oxo-17-pentafluoroethyl-2,3,6,7,8,11,12,13,14,15,16,17-dodecahydro-1H-cyclopenta[a]phenanthren-11-yl)benzyl]ureido}benzoic acid ethyl ester] | 0.8 | 0.7
C[C@]12C[C@H](c3ccc(CNC(=O)Nc4ccc(C(=O)O)cc4)cc3)C3=C4CCC(=O)C=C4CC[C@H]3[C@@H]1CC[C@@]2(O)C(F)(F)C(F)(F)F [Example 38, 4-{3-[4-((8S,11R,13S,14S,17S)-17-hydroxy-13-methyl-3-oxo-17-pentafluoroethyl-2,3,6,7,8,11,12,13,14,15,16,17-dodecahydro-1H-cyclopenta[a]phenanthren-11-yl)benzyl]ureido}benzoic acid] | 36 | 25
C[C@]12C[C@H](c3ccc(CNC(=O)Nc4ccc(N5CCCCC5)cc4)cc3)C3=C4CCC(=O)C=C4CC[C@H]3[C@@H]1CC[C@@]2(O)C(F)(F)C(F)(F)F [Example 39, 1-[4-((8S,11R,13S,14S,17S)-17-hydroxy-13-methyl-3-oxo-17-pentafluoroethyl-2,3,6,7,8,11,12,13,14,15,16,17-dodecahydro-1H-cyclopenta[a]phenanthren-11-yl)benzyl]-3-(4-piperidin-1-ylphenyl)urea] | 0.2 | 0.1
CC1(c2ccc([C@H]3C[C@@]4(C)[C@@H](CC[C@@]4(O)C(F)(F)C(F)(F)F)[C@@H]4CCC5=CC(=O)CCC5=C43)cc2)COC1 [Example 40, (8S,11R,13S,14S,17S)-17-hydroxy-13-methyl-11-[4-(3-methyloxetan-3-yl)phenyl]-17-pentafluoroethyl-1,2,6,7,8,11,12,13,14,15,16,17-dodecahydrocyclopenta[a]phenanthren-3-one] | 0.05 | 0.01
C[C@]12C[C@H](c3ccc(COC(=O)Nc4ccc(N5CCCCC5)cc4)cc3)C3=C4CCC(=O)C=C4CC[C@H]3[C@@H]1CC[C@@]2(O)C(F)(F)C(F)(F)F [Example 45, (4-piperidin-1-ylphenyl)carbamic acid 4-((8S,11R,13S,14S,17S)-17-hydroxy-13-methyl-3-oxo-17-pentafluoroethyl-2,3,6,7,8,11,12,13,14,15,16,17-dodecahydro-1H-cyclopenta[a]phenanthren-11-yl)benzyl ester] | 0.09 | 0.02

The remaining lines, values ahead:

IC50 [1] [nM] | IC50 [2] [nM] | SMILES
0.2 | 0.1 | CC(C)NC(=O)OCc1ccc([C@H]2C[C@@]3(C)[C@@H](CC[C@@]3(O)C(F)(F)C(F)(F)F)[C@@H]3CCC4=CC(=O)CCC4=C32)cc1 [Example 42, isopropylcarbamic acid 4-((8S,11R,13S,14S,17S)-17-hydroxy-13-methyl-3-oxo-17-pentafluoroethyl-2,3,6,7,8,11,12,13,14,15,16,17-dodecahydro-1H-cyclopenta[a]phenanthren-11-yl)benzyl ester]
0.1 | 0.1 | C=CCNC(=O)OCc1ccc([C@H]2C[C@@]3(C)[C@@H](CC[C@@]3(O)C(F)(F)C(F)(F)F)[C@@H]3CCC4=CC(=O)CCC4=C32)cc1 [Example 43, allylcarbamic acid 4-((8S,11R,13S,14S,17S)-17-hydroxy-13-methyl-3-oxo-17-pentafluoroethyl-2,3,6,7,8,11,12,13,14,15,16,17-dodecahydro-1H-cyclopenta[a]phenanthren-11-yl)benzyl ester]
0.1 | 0.1 | CC(C)(C)NC(=O)OCc1ccc([C@H]2C[C@@]3(C)[C@@H](CC[C@@]3(O)C(F)(F)C(F)(F)F)[C@@H]3CCC4=CC(=O)CCC4=C32)cc1 [Example 44, tert-butylcarbamic acid 4-((8S,11R,13S,14S,17S)-17-hydroxy-13-methyl-3-oxo-17-pentafluoroethyl-2,3,6,7,8,11,12,13,14,15,16,17-dodecahydro-1H-cyclopenta[a]phenanthren-11-yl)benzyl ester]
0.01 | 0.01 | C[C@]12C[C@H](c3ccc(COC(=O)Nc4ccccc4)cc3)C3=C4CCC(=O)C=C4CC[C@H]3[C@@H]1CC[C@@]2(O)C(F)(F)C(F)(F)F [Example 46, phenylcarbamic acid 4-((8S,11R,13S,14S,17S)-17-hydroxy-13-methyl-3-oxo-17-pentafluoroethyl-2,3,6,7,8,11,12,13,14,15,16,17-dodecahydro-1H-cyclopenta[a]phenanthren-11-yl)benzyl ester]
0.2 | 0.07 | Cc1ccc(NC(=O)OCc2ccc([C@H]3C[C@@]4(C)[C@@H](CC[C@@]4(O)C(F)(F)C(F)(F)F)[C@@H]4CCC5=CC(=O)CCC5=C43)cc2)cc1 [Example 48, (4-methylphenyl)carbamic acid 4-((8S,11R,13S,14S,17S)-17-hydroxy-13-methyl-3-oxo-17-pentafluoroethyl-2,3,6,7,8,11,12,13,14,15,16,17-dodecahydro-1H-cyclopenta[a]phenanthren-11-yl)benzyl ester]
0.1 | 0.09 | C[C@]12C[C@H](c3ccc(COC(=O)Nc4ccc(F)cc4)cc3)C3=C4CCC(=O)C=C4CC[C@H]3[C@@H]1CC[C@@]2(O)C(F)(F)C(F)(F)F [Example 49, (4-fluorophenyl)carbamic acid 4-((8S,11R,13S,14S,17S)-17-hydroxy-13-methyl-3-oxo-17-pentafluoroethyl-2,3,6,7,8,11,12,13,14,15,16,17-dodecahydro-1H-cyclopenta[a]phenanthren-11-yl)benzyl ester]
0.4 | 0.1 | C[C@]12C[C@H](c3ccc(COC(=O)Nc4ccc(Cl)cc4)cc3)C3=C4CCC(=O)C=C4CC[C@H]3[C@@H]1CC[C@@]2(O)C(F)(F)C(F)(F)F [Example 50, (4-chlorophenyl)carbamic acid 4-((8S,11R,13S,14S,17S)-17-hydroxy-13-methyl-3-oxo-17-pentafluoroethyl-2,3,6,7,8,11,12,13,14,15,16,17-dodecahydro-1H-cyclopenta[a]phenanthren-11-yl)benzyl ester]
